From ChEMBL document CHEMBL1201862, “PubChem BioAssay data set” (2004) come the findings set out here.

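96-well plates; 48 h exposure; 5 concentrations. Endpoints by linear interpolation between flanking doses. Not reached: highest tested concentration assigned. GI50 is the concentration that inhibits growth by half.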 The source made the active and inactive calls. Cut-off read from the data, not from the text of the source: active = GI50 up to about 1.1 µM and inactive = higher. Bounds are passed on as bounds.

Holding throughout (assay): NCI tumour cell line growth inhibition, 48 h
Test [1] concerns A498.
Test [2] has as its system CAKI-1.
Test [3] has as its system CCRF-CEM.
Test [4] relates to HCT-15.
Test [5] has as its system HOP-62.
Test [6] has as its system K562.
The subject of test [7] is LOX IMVI.
Test [8] concerns M14.
The test system of test [9] is MDA-MB-231.
The subject of test [10] is NCI-H226.
Test [11] has as its system RXF 393.
Test [12] relates to SF-268.
The test system of test [13] is SF-295.
In test [14] the test system is SK-MEL-2.
For test [15], the system named is SK-MEL-5.
For test [16], the system named is SK-OV-3.
Test [17] deals with SN12C.
The test system of test [18] is SR.
Test [19] concerns TK-10.
Test [20] has as its system DU-145.

On to `COC(=O)/C(=N\NC(N)=O)C(C(=O)C(=O)Nc1ccccc1OC)c1nc2ccc([N+](=O)[O-])cc2nc1O` (configuration not stated), for which the GI50 in test [1] was > 100 µM (inactive); in test [2] it was > 100 µM (inactive); in [3], > 100 µM (inactive); in test [4] it was more than 100 µM; in [5], > 100 µM (inactive); in [6], 30 µM (inactive). Also, the GI50 in test [7], in test [8], in test [9], in test [10], in test [11] and in [12] was > 100 µM (inactive) throughout. In addition, the GI50 in test [13], in test [14], in [15], in test [16], in test [17] and in test [18] was > 100 µM (inactive) each time. Moreover, in test [19], the GI50 was > 100 µM (inactive).

With `O=C1CC(c2ccc(Cl)cc2)=Nc2ccccc2N1`, the GI50 in test [1] is 79.6 µM (inactive); in test [2], > 100 µM (inactive); in [3], 15.1 µM (inactive); in test [4], 65.8 µM; in [5], 40.6 µM (inactive); in [6], 40 µM (inactive). Also, the GI50 was 24.2 µM (inactive) in test [7]; > 100 µM (inactive) in test [8]; > 100 µM (inactive) in test [10]; 29.9 µM (inactive) in test [11]; > 100 µM (inactive) in test [12]; 86.7 µM (inactive) in test [13]. Besides, the GI50 in test [14] was > 100 µM (inactive); in test [15], > 100 µM (inactive); in test [16], 32.7 µM (inactive); in test [17] it was 46.7 µM (inactive); in [18], 37.8 µM (inactive); in [19] it was 43.3 µM (inactive).

On to `Cc1cccc(C)c1NC(=O)CCC(=O)NNc1nnc(C)n1N`, for which the GI50 in test [1] is 53.3 µM (inactive); in [2] it was > 100 µM (inactive); in test [3], > 100 µM (inactive); in test [4], more than 100 µM; in test [5], > 100 µM (inactive); in test [6], > 100 µM (inactive). The GI50 in test [7], in test [8], in test [10], in [11], in [12] and in [13] was > 100 µM (inactive) each time. Moreover, the GI50 in [14], in test [15], in [16], in test [17], in [18] and in test [19] was > 100 µM (inactive) each time.

Regarding `COc1cc2c(c(O)c1OC)C(=O)[C@@H]1CCC(=O)N1C2c1ccccc1` (some centres not stated), the GI50 is > 100 µM (inactive) in test [1]; > 100 µM (inactive) in test [2]; 30.5 µM (inactive) in [3]; > 100 µM (inactive) in [20]; more than 100 µM in [4]; > 100 µM (inactive) in test [5]. The GI50 in test [6] was 38.6 µM (inactive); in test [7] it was 97.1 µM (inactive); in test [8], > 100 µM (inactive); in test [10], > 100 µM (inactive); in test [12] it was > 100 µM (inactive); in test [13] it was > 100 µM (inactive). Besides, the GI50 in [14] is > 100 µM (inactive); in test [15] it was > 10 µM (inactive); in test [16], > 100 µM (inactive); in [17], > 100 µM (inactive); in [18], 46.6 µM (inactive); in [19], > 100 µM (inactive).

As for `CN1CCN(c2nc3ccccc3nc2C(=O)c2ccc(Cl)cc2)CC1`, the GI50 was 41.7 µM (inactive) in test [1]; 40.4 µM (inactive) in [2]; 48.6 µM (inactive) in test [3]; > 100 µM (inactive) in [20]; 55.6 µM in test [4]; 59.4 µM (inactive) in [5]. Besides, the GI50 is 40.8 µM (inactive) in [6]; 40.6 µM (inactive) in test [7]; 22.2 µM (inactive) in test [8]; 24.5 µM (inactive) in test [11]; 46.9 µM (inactive) in test [12]; 36.3 µM (inactive) in test [13]. Moreover, the GI50 was 58.5 µM (inactive) in [14]; 14.5 µM (inactive) in test [15]; > 100 µM (inactive) in test [16]; 47.4 µM (inactive) in test [18]; 35.6 µM (inactive) in [19].

For the molecule `CCOC(=O)c1nnsc1NC(=O)Nc1ccc(Cl)cc1`, the GI50 in test [3] was > 100 µM (inactive); in [20] it was 56.5 µM (inactive); in [4], 61.9 µM; in [5] it was 68.9 µM (inactive); in test [6], > 100 µM (inactive); in test [8], 77.1 µM (inactive). For the same molecule, the GI50 in [9] is 20.7 µM (inactive); in [10], 36.6 µM (inactive); in [11] it was > 100 µM (inactive); in [12], 57.5 µM (inactive); in test [14] it was > 100 µM (inactive); in test [15], > 100 µM (inactive). In addition, the GI50 in [17] was 35.2 µM (inactive); in test [19] it was > 100 µM (inactive).

In the case of `CC(C)OC1OC(CO)C(O)CC1n1cc(F)c(=O)[nH]c1=O` (configuration not stated), the GI50 in [1] was > 100 µM (inactive); in [2] it was 24.6 µM (inactive); in test [20], > 100 µM (inactive); in test [4] it was more than 100 µM; in test [6] it was 34.4 µM (inactive); in [7] it was 94 µM (inactive). For the same molecule, the GI50 in test [8] is > 100 µM (inactive); in test [9], > 100 µM (inactive); in test [10], > 100 µM (inactive); in test [11] it was 47.5 µM (inactive); in test [12], 59.3 µM (inactive); in test [13], > 100 µM (inactive). The GI50 in [14], in [15], in [17] and in test [19] was > 100 µM (inactive) throughout.

On to `CNC(=S)N/N=C(C)\C(=N/NC(=S)NC)c1ccccc1`, for which the GI50 is 96.6 µM (inactive) in test [2]; > 100 µM (inactive) in test [20]; 53.1 µM in [4]; > 100 µM (inactive) in [5]; 42.1 µM (inactive) in test [7]; 61.4 µM (inactive) in test [8]. Further, the GI50 in test [9] is > 100 µM (inactive); in test [10] it was 63.7 µM (inactive); in test [11] it was 56.8 µM (inactive); in test [12] it was 74.8 µM (inactive); in [13], 34.4 µM (inactive); in test [15], 42.3 µM (inactive). For the same molecule, the GI50 in test [16] and in test [19] was > 100 µM (inactive) in each case.

For `O=C(CN(c1ccccc1)c1ccccc1)N1c2ccccc2C2C=CC=CC21` (configuration not stated), the GI50 was 32.4 µM (inactive) in test [1]; 18.3 µM (inactive) in test [2]; 9.42 µM (inactive) in test [3]; 16.7 µM in test [4]; 20.1 µM (inactive) in test [5]; 14.3 µM (inactive) in [6]. Moreover, the GI50 was 18.2 µM (inactive) in test [7]; 25.6 µM (inactive) in test [8]; 18.5 µM (inactive) in test [10]; 30.5 µM (inactive) in test [11]; 26.5 µM (inactive) in test [12]; 24.5 µM (inactive) in test [13]. Besides, the GI50 in test [14] is 18.1 µM (inactive); in [15] it was 15.6 µM (inactive); in test [16] it was 23.6 µM (inactive); in [17], 8.34 µM (inactive); in [18] it was 0.579 µM (active); in [19], 24.3 µM (inactive).

Consider `CC(=O)NCc1nc(C#N)c(N)o1`, for which the GI50 is > 100 µM (inactive) in test [1]; > 100 µM (inactive) in [2]; > 100 µM (inactive) in test [3]; > 100 µM (inactive) in [20]; more than 100 µM in test [4]; > 100 µM (inactive) in test [5]. The GI50 in [6], in test [7], in [8], in test [9], in test [10] and in test [11] was > 100 µM (inactive) in each case. In addition, the GI50 in [12], in test [13], in test [14], in test [16], in test [17] and in [19] was > 100 µM (inactive) in each case.

Consider `CCOC(=O)CCC(NC(=O)c1ccc(/N=C/c2nc3cc(C(F)(F)F)ccc3nc2-c2ccccc2)cc1)C(=O)OCC` (configuration not stated), for which the GI50 in test [1] is 23.4 µM (inactive); in [2], 32.4 µM (inactive); in test [3], > 50 µM (inactive); in test [20] it was 34.1 µM (inactive); in test [4], more than 50 µM; in test [5], 12.9 µM (inactive). Further, the GI50 in test [6] is > 50 µM (inactive); in test [7], 14.4 µM (inactive); in test [8], 23.9 µM (inactive); in test [10], > 50 µM (inactive); in test [11] it was 7.14 µM (inactive); in test [12] it was 8.34 µM (inactive). Further, the GI50 in test [13] is 9.84 µM (inactive); in test [14], 11.3 µM (inactive); in [15], 25.1 µM (inactive); in [16], 8.77 µM (inactive); in [17] it was > 50 µM (inactive); in test [18], > 50 µM (inactive). Also, the GI50 in test [19] is 12.1 µM (inactive).

Turning to `NC(=O)c1c2c(cc3c(=O)c4ccccc4[nH]c13)CCCC2`, the GI50 in test [1] is > 100 µM (inactive); in [2], > 100 µM (inactive); in test [3], > 65 µM (inactive); in test [4], more than 100 µM; in test [5], > 100 µM (inactive); in [6], > 65.2 µM (inactive). The GI50 in test [7], in test [8], in test [10], in test [11], in test [12] and in test [13] was > 100 µM (inactive) each time. Also, the GI50 in [14] is > 65.9 µM (inactive); in [15] it was > 100 µM (inactive); in test [16], > 100 µM (inactive); in test [17] it was > 100 µM (inactive); in test [18] it was > 100 µM (inactive); in test [19], > 100 µM (inactive).
